The text below walks through data of patent publication US10544102B2, “Benzazepine dicarboxamide compounds with secondary amide function” (Hoffmann-La Roche Inc., priority 2017, dated 2020).

The target of one test is T1, human TLR8 (Homo sapiens, UniProt Q9NR97).
T1 construct: host or cells: HEK-Blue human TLR8 cells (HEK293-derived reporter line)
T1 sequence (Q9NR97 27-1041): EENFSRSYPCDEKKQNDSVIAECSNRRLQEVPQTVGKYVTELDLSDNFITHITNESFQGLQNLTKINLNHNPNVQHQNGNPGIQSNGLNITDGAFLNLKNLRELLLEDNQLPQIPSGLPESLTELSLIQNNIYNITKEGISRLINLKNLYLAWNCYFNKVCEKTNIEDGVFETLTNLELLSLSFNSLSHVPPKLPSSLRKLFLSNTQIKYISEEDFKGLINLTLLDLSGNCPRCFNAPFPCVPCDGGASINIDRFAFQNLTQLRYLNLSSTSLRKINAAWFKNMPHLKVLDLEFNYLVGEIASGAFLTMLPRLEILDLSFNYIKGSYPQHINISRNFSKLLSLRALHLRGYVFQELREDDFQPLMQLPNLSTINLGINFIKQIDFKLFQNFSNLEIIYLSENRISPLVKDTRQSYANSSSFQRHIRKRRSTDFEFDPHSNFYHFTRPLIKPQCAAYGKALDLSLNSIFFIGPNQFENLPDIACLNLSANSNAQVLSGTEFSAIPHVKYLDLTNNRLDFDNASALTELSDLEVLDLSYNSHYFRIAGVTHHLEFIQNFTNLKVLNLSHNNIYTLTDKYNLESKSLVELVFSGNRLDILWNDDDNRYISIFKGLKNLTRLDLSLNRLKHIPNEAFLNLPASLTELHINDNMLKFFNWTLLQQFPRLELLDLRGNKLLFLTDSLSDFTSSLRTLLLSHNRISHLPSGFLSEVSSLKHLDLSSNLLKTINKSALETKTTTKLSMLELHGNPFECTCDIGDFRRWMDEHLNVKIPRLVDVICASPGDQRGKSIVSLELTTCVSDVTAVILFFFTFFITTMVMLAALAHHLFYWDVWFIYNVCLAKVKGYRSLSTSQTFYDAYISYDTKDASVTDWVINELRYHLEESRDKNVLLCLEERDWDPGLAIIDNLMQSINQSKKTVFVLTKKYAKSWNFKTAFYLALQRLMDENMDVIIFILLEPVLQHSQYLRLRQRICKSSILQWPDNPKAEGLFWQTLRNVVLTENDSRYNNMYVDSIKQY
As to the kind of experiment: HEK-Blue human TLR8 cells NF-κB SEAP reporter assay. The test is classed as cell-based. As to conditions: stimulation for 20 hours, Quanti Blue 640 nm. The text has this:
(§1) For TLR8 and TLR7 activity testing, HEK-Blue human TLR8 or TLR7 cells (Invivogen, San Diego, Calif., USA) are used, respectively. These cells are designed for studying the stimulation of human TLR8 or TLR7 by monitoring the activation of NF-κB. A SEAP (secreted embryonic alkaline phosphatase) reporter gene is placed under the control of the IFN-b minimal promoter fused to five NF-κB and AP-1-binding sites. Therefore the reporter expression is regulated by the NF-κB promoter upon stimulation of human TLR8 or TLR7 for 20 hours. The cell culture supernatant SEAP reporter activity was determined using Quanti Blue kit (Invivogen, San Diego, Calif., USA) at a wavelength of 640 nm, a detection medium that turns purple/blue in the presence of alkaline phosphatase. EC50 values were determined using Activity Base analysis (ID Business Solution, Limited).
In general terms: Reporter assays use an easily measured gene product as a stand-in for the process of interest.

The target in the next test is T2, human TLR7 (Homo sapiens, UniProt Q9NYK1).
T2 construct: host or cells: HEK-Blue human TLR7 cells (HEK293-derived reporter line)
T2 sequence (Q9NYK1 27-1049): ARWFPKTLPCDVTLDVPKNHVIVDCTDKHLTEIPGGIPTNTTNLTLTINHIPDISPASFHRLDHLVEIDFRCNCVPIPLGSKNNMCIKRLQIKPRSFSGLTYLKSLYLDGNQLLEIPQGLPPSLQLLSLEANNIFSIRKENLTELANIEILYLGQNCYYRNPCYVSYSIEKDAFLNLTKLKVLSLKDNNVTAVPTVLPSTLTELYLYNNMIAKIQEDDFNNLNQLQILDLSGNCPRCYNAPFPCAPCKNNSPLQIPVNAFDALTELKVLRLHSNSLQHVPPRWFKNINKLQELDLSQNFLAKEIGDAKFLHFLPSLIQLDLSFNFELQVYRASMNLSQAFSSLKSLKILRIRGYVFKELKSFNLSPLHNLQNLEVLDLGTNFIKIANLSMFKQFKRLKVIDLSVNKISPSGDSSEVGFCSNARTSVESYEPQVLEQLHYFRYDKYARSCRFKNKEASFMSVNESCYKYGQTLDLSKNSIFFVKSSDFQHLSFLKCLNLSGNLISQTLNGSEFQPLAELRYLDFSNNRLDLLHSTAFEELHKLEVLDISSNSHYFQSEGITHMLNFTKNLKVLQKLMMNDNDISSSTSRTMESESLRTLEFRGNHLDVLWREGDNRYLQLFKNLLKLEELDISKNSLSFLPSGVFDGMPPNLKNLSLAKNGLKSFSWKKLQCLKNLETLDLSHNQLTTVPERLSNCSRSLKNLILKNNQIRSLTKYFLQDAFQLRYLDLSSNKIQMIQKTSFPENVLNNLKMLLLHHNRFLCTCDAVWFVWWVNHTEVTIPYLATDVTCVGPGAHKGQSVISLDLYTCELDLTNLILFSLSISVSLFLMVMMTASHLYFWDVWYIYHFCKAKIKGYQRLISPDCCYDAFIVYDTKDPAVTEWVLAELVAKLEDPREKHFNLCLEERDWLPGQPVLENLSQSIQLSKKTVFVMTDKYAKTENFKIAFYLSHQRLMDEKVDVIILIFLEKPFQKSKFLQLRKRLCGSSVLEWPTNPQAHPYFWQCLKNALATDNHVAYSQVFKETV
In words: HEK-Blue human TLR7 cells NF-κB SEAP reporter assay. The test is classed as cell-based. Particulars: stimulation for 20 hours, Quanti Blue 640 nm.
Description: as §1

For the compound `CCCN(CCC)C(=O)C1=Cc2ccc(C(=O)N[C@H](C)c3ccccc3)cc2N=C(N)C1` [Example 14, 2-Amino-N8-[(1R)-1-phenylethyl]-N4,N4-dipropyl-3H-1-benzazepine-4,8-dicarboxamide], the EC50 (in general, the concentration that produces a half-maximal response) was 12 nM at human TLR8 and 35000 nM at human TLR7.
For `CCCN(CCC)C(=O)C1=Cc2ccc(C(=O)NC3CCCC3)cc2N=C(N)C1` [Example 15, 2-Amino-N8-cyclopentyl-N4,N4-dipropyl-3H-1-benzazepine-4,8-dicarboxamide] the same measures were 14 nM and over 100000 nM.
For `CCCN(CCC)C(=O)C1=Cc2ccc(C(=O)NC(C)(C)C)cc2N=C(N)C1` [Example 16, 2-Amino-N8-tert-butyl-N4,N4-dipropyl-3H-1-benzazepine-4,8-dicarboxamide] the same measures were 28 nM and 50000 nM.
For `CCCN(CCC)C(=O)C1=Cc2ccc(C(=O)NC3CCC3)cc2N=C(N)C1` [Example 17, 2-Amino-N8-cyclobutyl-N4,N4-dipropyl-3H-1-benzazepine-4,8-dicarboxamide] the same measures were 25 nM and over 100000 nM.
In the case of `CCCN(CCC)C(=O)C1=Cc2ccc(C(=O)NCc3ccccc3)cc2N=C(N)C1` [Example 18, 2-Amino-N8-benzyl-N4,N4-dipropyl-3H-1-benzazepine-4,8-dicarboxamide], the EC50 was found to be 26 nM on human TLR8 and 25000 nM on human TLR7.
The matching figures for `CCCN(CCC)C(=O)C1=Cc2ccc(C(=O)NCc3cccnc3)cc2N=C(N)C1` [Example 19, 2-Amino-N4,N4-dipropyl-N8-(3-pyridylmethyl)-3H-1-benzazepine-4,8-dicarboxamide]: 25 nM and 49000 nM.
The matching figures for `CCCN(CCC)C(=O)C1=Cc2ccc(C(=O)NCCc3cccnc3)cc2N=C(N)C1` [Example 20, 2-Amino-N4,N4-dipropyl-N8-[2-(3-pyridyl)ethyl]-3H-1-benzazepine-4,8-dicarboxamide]: 30 nM and over 100000 nM.
The matching figures for `CCCN(CCC)C(=O)C1=Cc2ccc(C(=O)NCCCc3cccnc3)cc2N=C(N)C1` [Example 21, 2-Amino-N4,N4-dipropyl-N8-[3-(3-pyridyl)propyl]-3H-1-benzazepine-4,8-dicarboxamide]: 29 nM and over 100000 nM.
As for `CCCN(CC1CC1)C(=O)C1=Cc2ccc(C(=O)NC3C[C@H]3c3ccccc3)cc2N=C(N)C1` (stereo partly drawn) [Example 22, 2-Amino-N4-(cyclopropylmethyl)-N8-[(2S)-2-phenylcyclopropyl]-N4-propyl-3H-1-benzazepine-4,8-dicarboxamide], the EC50 was 5 nM at human TLR8 and 14000 nM on human TLR7.
For `CCCN(CCC)C(=O)C1=Cc2ccc(C(=O)NC3CCCN(c4ccccc4)C3)cc2N=C(N)C1` (stereo not drawn) [Example 23, 2-Amino-N8-(1-phenyl-3-piperidyl)-N4,N4-dipropyl-3H-1-benzazepine-4,8-dicarboxamide], the figures for the EC50 at human TLR8 and on human TLR7 were 10 nM and over 100000 nM, respectively.
For `CCCN(CCC)C(=O)C1=Cc2ccc(C(=O)NC3CCN(c4ccccc4)C3)cc2N=C(N)C1` (stereo not drawn) [Example 24, 2-Amino-N8-(1-phenylpyrrolidin-3-yl)-N4,N4-dipropyl-3H-1-benzazepine-4,8-dicarboxamide] the same measures were 19 nM and over 100000 nM.
For `CCCN(CCC)C(=O)C1=Cc2ccc(C(=O)N[C@H]3CCN(c4ccccc4)C3)cc2N=C(N)C1` [Example 25, 2-Amino-N8-[(3S)-1-phenylpyrrolidin-3-yl]-N4,N4-dipropyl-3H-1-benzazepine-4,8-dicarboxamide] the same measures were 10 nM and over 100000 nM.
For `CCCN(CCC)C(=O)C1=Cc2ccc(C(=O)NC3CCC(CNc4ccccc4)CC3)cc2N=C(N)C1` (stereo not drawn) [Example 26, 2-Amino-N8-[4-(anilinomethyl)cyclohexyl]-N4,N4-dipropyl-3H-1-benzazepine-4,8-dicarboxamide] the same measures were 9 nM and over 100000 nM.
For the compound `CCCN(CCC)C(=O)C1=Cc2ccc(C(=O)NC3CC(CNc4ccccc4)C3)cc2N=C(N)C1` (stereo not drawn) [Example 27, 2-Amino-N8-[3-(anilinomethyl)cyclobutyl]-N4,N4-dipropyl-3H-1-benzazepine-4,8-dicarboxamide], the EC50 is 7 nM at human TLR8 and over 100000 nM at human TLR7.
For `CCCN(CCC)C(=O)C1=Cc2ccc(C(=O)N[C@@H]3CCN(c4ccccc4)C3)cc2N=C(N)C1` [Example 28, 2-Amino-N8-[(3R)-1-phenylpyrrolidin-3-yl]-N4,N4-dipropyl-3H-1-benzazepine-4,8-dicarboxamide] the same measures were 10 nM and over 100000 nM.
